Measurements: patent US20220251141A1, “IMMUNOMODULATORS” (Bristol-Myers Squibb Company, priority 2019, published 2022)
Bridge positions count the residues as written; N and C are the ends. Square brackets hold non-standard residues; d marks the D form. Peptide text beside a SMILES is read from it. * marks the point of attachment. Trp(1-CH2COOH) = N[C@@H](Cc1cn(CC(=O)O)c2ccccc12)C(=O)O; Trp(1-Me) = Cn1cc(C[C@H](N)C(=O)O)c2ccccc21; Phe(4-F) = N[C@@H](Cc1ccc(F)cc1)C(=O)O; Hyp = O=C(O)[C@@H]1C[C@@H](O)CN1; NMeNle = CCCC[C@H](NC)C(=O)O; Pen = CC(C)(S)[C@H](N)C(=O)O; Pip = O=C(O)[C@@H]1CCCCN1; Dab = NCC[C@H](N)C(=O)O; Dap = NC[C@H](N)C(=O)O; Piv = CC(C)(C)C(=O)*

Target: T1, PD-1/PD-L1 (Homo sapiens, UniProt Q9NZQ7)
T1 construct: TVMV protease site linker (C); made in house; host or cells: HEK293T cells
Test: PD-1/PD-L1 Homogenous Time-Resolved Fluorescence (HTRF) binding assay
Conditions: PD-L1-His 10 nM final, PD-1-Ig 20 nM final; inhibitors pre-incubated with PD-L1-His for 15 m
In short: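 Compounds pre-incubated 15 min with human PD-L1(18-239)-His (10 nM final), then PD-1(25-167)-Ig (20 nM final) added for 15 min, in dPBS with 0.1% BSA and 0.05% Tween-20. Eu-cryptate anti-Ig (1 nM) and APC anti-His (20 nM) added, 30 min equilibration, 665/620 nm ratio read; IC50 reported.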

SMILES	IC50 [nM]
CCCC[C@H]1C(=O)N(C)[C@@H](CCCC)C(=O)N[C@@H](CCC(=O)O)C(=O)N[C@H](C(N)=O)CSCC(=O)N[C@@H](Cc2ccc(F)cc2)C(=O)N2CCCC[C@H]2C(=O)N[C@@H](CC(N)=O)C(=O)N2CCC[C@H]2C(=O)N[C@@H](CNC(=O)C(C)(C)C)C(=O)N[C@@H](CC(C)C)C(=O)N2C[C@H](O)C[C@H]2C(=O)N[C@@H](Cc2c[nH]c3ccccc23)C(=O)N[C@@H](CCN)C(=O)N[C@@H](Cc2cn(CC(=O)O)c3ccccc23)C(=O)N1C [Example 20130] ({CH2CO}-[Phe(4-F)][Pip]NP[Dap](Piv)L[Hyp]W[Dab][Trp(1-CH2COOH)][NMeNle][NMeNle]EC-NH2; thioether N-14)	11.8
CCCC[C@H]1C(=O)N(C)[C@@H](CCCC)C(=O)N[C@@H](CCC(N)=O)C(=O)N[C@H](C(N)=O)CSCC(=O)N[C@@H](Cc2ccc(F)cc2)C(=O)N2CCCC[C@H]2C(=O)N[C@@H](CC(N)=O)C(=O)N2CCC[C@H]2C(=O)N[C@@H](CNC(=O)C(C)(C)C)C(=O)N[C@@H](CC(C)C)C(=O)N2C[C@H](O)C[C@H]2C(=O)N[C@@H](Cc2c[nH]c3ccccc23)C(=O)N[C@@H](CCN)C(=O)N[C@@H](Cc2cn(C)c3ccccc23)C(=O)N1C [Example 20150] ({CH2CO}-[Phe(4-F)][Pip]NP[Dap](Piv)L[Hyp]W[Dab][Trp(1-Me)][NMeNle][NMeNle]QC-NH2; thioether N-14)	12.5
CCCC[C@H]1C(=O)N(C)[C@@H](CCCC)C(=O)N[C@@H](CCC(=O)O)C(=O)N[C@H](C(N)=O)CSCC(=O)N[C@@H](Cc2ccc(F)cc2)C(=O)N2CCCC[C@H]2C(=O)N[C@@H](CC(=O)O)C(=O)N2CCC[C@H]2C(=O)N[C@@H](CNC(=O)C(C)(C)C)C(=O)N[C@@H](CC(C)C)C(=O)N2C[C@H](O)C[C@H]2C(=O)N[C@@H](Cc2c[nH]c3ccccc23)C(=O)N[C@@H](CCN)C(=O)N[C@@H](Cc2cn(CC(=O)O)c3ccccc23)C(=O)N1C [Example 20170] ({CH2CO}-[Phe(4-F)][Pip]DP[Dap](Piv)L[Hyp]W[Dab][Trp(1-CH2COOH)][NMeNle][NMeNle]EC-NH2; thioether N-14)	14
CCCC[C@H]1C(=O)N(C)[C@@H](CCCC)C(=O)N[C@@H](CC(C)C)C(=O)N[C@H](C(N)=O)C(C)(C)SCC(=O)N[C@@H](Cc2ccc(F)cc2)C(=O)N2CCCC[C@H]2C(=O)N[C@@H](CC(=O)O)C(=O)N2CCC[C@H]2C(=O)N[C@@H](CNC(=O)C(C)(C)C)C(=O)N[C@@H](CC(C)C)C(=O)N2C[C@H](O)C[C@H]2C(=O)N[C@@H](Cc2c[nH]c3ccccc23)C(=O)N[C@@H](CCNC(=O)C(C)(C)C)C(=O)N[C@@H](Cc2cn(CC(=O)O)c3ccccc23)C(=O)N1C [Example 20180] ({CH2CO}-[Phe(4-F)][Pip]DP[Dap](Piv)L[Hyp]W[Dab](Piv)[Trp(1-CH2COOH)][NMeNle][NMeNle]L[Pen]-NH2; thioether N-14)	14.1
CCCC[C@H]1C(=O)N(C)[C@@H](CCCC)C(=O)N[C@@H](CC(C)C)C(=O)N[C@H](C(N)=O)CSCC(=O)N[C@@H](Cc2ccc(F)cc2)C(=O)N2CCCC[C@H]2C(=O)N[C@@H](CC(=O)O)C(=O)N2CCC[C@H]2C(=O)N[C@@H](CNC(=O)C(C)(C)C)C(=O)N[C@@H](CC(C)C)C(=O)N2C[C@H](O)C[C@H]2C(=O)N[C@@H](Cc2c[nH]c3ccccc23)C(=O)N[C@@H](CCN)C(=O)N[C@@H](Cc2cn(C)c3ccccc23)C(=O)N1C [Example 20190] ({CH2CO}-[Phe(4-F)][Pip]DP[Dap](Piv)L[Hyp]W[Dab][Trp(1-Me)][NMeNle][NMeNle]LC-NH2; thioether N-14)	14.2
CCCC[C@H]1C(=O)N(C)[C@@H](CCCC)C(=O)N[C@@H](CC(C)C)C(=O)N[C@H](C(N)=O)CSCC(=O)N[C@@H](Cc2ccc(F)cc2)C(=O)N2CCCC[C@H]2C(=O)N[C@@H](CC(N)=O)C(=O)N2CCC[C@H]2C(=O)N[C@@H](CNC(=O)C(C)(C)C)C(=O)N[C@@H](CC(C)C)C(=O)N2C[C@H](O)C[C@H]2C(=O)N[C@@H](Cc2c[nH]c3ccccc23)C(=O)N[C@@H](CCNC(=O)C(C)(C)C)C(=O)N[C@@H](Cc2cn(CC(=O)O)c3ccccc23)C(=O)N1C [Example 20200] ({CH2CO}-[Phe(4-F)][Pip]NP[Dap](Piv)L[Hyp]W[Dab](Piv)[Trp(1-CH2COOH)][NMeNle][NMeNle]LC-NH2; thioether N-14)	15.8
CCCC[C@H]1C(=O)N(C)[C@@H](CCCC)C(=O)N[C@@H](CC(C)C)C(=O)N[C@H](C(N)=O)C(C)(C)SCC(=O)N[C@@H](Cc2ccc(F)cc2)C(=O)N2CCCC[C@H]2C(=O)N[C@@H](CC(=O)O)C(=O)N2CCC[C@H]2C(=O)N[C@@H](CNC(=O)C(C)(C)C)C(=O)N[C@@H](CC(C)C)C(=O)N2C[C@H](O)C[C@H]2C(=O)N[C@@H](Cc2c[nH]c3ccccc23)C(=O)N[C@@H](CCN)C(=O)N[C@@H](Cc2cn(C)c3ccccc23)C(=O)N1C [Example 20210] ({CH2CO}-[Phe(4-F)][Pip]DP[Dap](Piv)L[Hyp]W[Dab][Trp(1-Me)][NMeNle][NMeNle]L[Pen]-NH2; thioether N-14)	16.4
CCCC[C@H]1C(=O)N(C)[C@@H](CCCC)C(=O)N[C@@H](CCC(N)=O)C(=O)N[C@H](C(N)=O)C(C)SCC(=O)N[C@@H](Cc2ccc(F)cc2)C(=O)N2CCCC[C@H]2C(=O)N[C@@H](CC(N)=O)C(=O)N2CCC[C@H]2C(=O)N[C@@H](CNC(=O)C(C)(C)C)C(=O)N[C@@H](C(C)C)C(=O)N2C[C@H](O)C[C@H]2C(=O)N[C@@H](Cc2c[nH]c3ccccc23)C(=O)N[C@@H](CCN)C(=O)N[C@@H](Cc2cn(C)c3ccccc23)C(=O)N1C (stereo partly shown) [Example 20220]	16.6
CCCC[C@H]1C(=O)N(C)[C@@H](CCCC)C(=O)N[C@@H](CCC(=O)O)C(=O)N[C@H](C(N)=O)CSCC(=O)N[C@@H](Cc2ccc(F)cc2)C(=O)N2CCCC[C@H]2C(=O)N[C@@H](CC(N)=O)C(=O)N2CCC[C@H]2C(=O)N[C@@H](CNC(=O)C(C)(C)C)C(=O)N[C@@H](CC(C)C)C(=O)N2C[C@H](O)C[C@H]2C(=O)N[C@@H](Cc2c[nH]c3ccccc23)C(=O)N[C@@H](CCNC(=O)C(C)(C)C)C(=O)N[C@@H](Cc2cn(C)c3ccccc23)C(=O)N1C [Example 20230] ({CH2CO}-[Phe(4-F)][Pip]NP[Dap](Piv)L[Hyp]W[Dab](Piv)[Trp(1-Me)][NMeNle][NMeNle]EC-NH2; thioether N-14)	16.6
CCCC[C@H]1C(=O)N(C)[C@@H](CCCC)C(=O)N[C@@H](CCC(N)=O)C(=O)N[C@H](C(N)=O)CSCC(=O)N[C@@H](Cc2ccc(F)cc2)C(=O)N2CCCC[C@H]2C(=O)N[C@@H](CC(=O)O)C(=O)N2CCC[C@H]2C(=O)N[C@@H](CNC(=O)C(C)(C)C)C(=O)N[C@@H](CCCCN)C(=O)N2C[C@H](O)C[C@H]2C(=O)N[C@@H](Cc2c[nH]c3ccccc23)C(=O)N[C@@H](CCN)C(=O)N[C@@H](Cc2cn(C)c3ccccc23)C(=O)N1C [Example 20240] ({CH2CO}-[Phe(4-F)][Pip]DP[Dap](Piv)K[Hyp]W[Dab][Trp(1-Me)][NMeNle][NMeNle]QC-NH2; thioether N-14)	18.4
